Experiments:
SIK2 = target: T1, SIK2 (Homo sapiens, UniProt Q9H0K1); experiment: ADP-Glo kinase assay, SIK2; assay type: biochemical; settings: ADP-Glo SIK kinase assay
T1 construct: purchased ThermoFisher Scientific PV4792
How it was run: (§1)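 ADP-Glo luminescent assay of ADP formed by SIK2 or SIK3 with substrate after ATP addition, 120 min at RT. Remaining ATP depleted 40 min, then ADP converted to ATP and read by luciferase luminescence after 30 min. Controls: 1% DMSO and 10 μM staurosporine (final).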

[1] = tested on: LPS triggered IL-10 secretion in monocytes; experiment: Monocytes assay: LPS-triggered IL-10 (ELISA); assay type: cell-based, human; settings: LPS 200 ng/mL, supernatant after 4 h, maximal fold change vs LPS only
Procedure: (§2) SIK inhibition inhibits TNFα and increases IL-10 release in LPS triggered monocyte-derived macrophages (MdM) and dendritic cells (MdDCs) (Clark et al. 2012; Sundberg et al. 2014; Ozanne et al. 2015). This assay evaluates illustrative compounds of the invention for their inhibition of LPS-induced TNFα and LPS triggered IL-10 secretion in monocytes.
(§3) PBMCs are isolated from human blood samples (buffycoats). The buffy coat is aseptically transferred into a 50 mL Falcon tube, and diluted 1/2 in PBS. Falcon tubes are filled with 20 mL Lymphoprep™, on top of which 25 mL of the buffy coat is carefully added, tubes are centrifuged for 35 min at 400 g in temperature controlled centrifuge, without brake, at 25° C. PBMCs are aspirated from the white interface layer between sample and Lymphoprep™. PBMCs are washed five times in PBS. Cells are resuspended in RPMI 1640 complete medium supplemented with 10% FBS, 1% P/S, and cell density is determined using a hematologic analyzer (Sysmex XS-500i).
(§4) PBMCs are centrifuged at 300×g for 10 min and resuspended at a density of 1.0*10^7 cells/80 μL Miltenyi buffer (PBS, pH 7.4, 1% FBS, 2 mM EDTA).
(§5) Starting from this point of the protocol all steps are performed on ice. 20 μL of CD14+ micro-beads are added per 1.0*10^7 cells, the tube is mixed and incubated for 15 min in the fridge at 4° C. Cell suspension volume is adjusted to total volume of 100 mL using Miltenyi buffer, mixed gently and subsequently centrifuged for 10 min at 300×g. Supernantant is discarded and cell pellet is resuspended in 12 mL of Miltenyi buffer.
(§6) Four LS columns are placed in the MACS Separator (magnet) from Miltenyi Biotec, and are prewet by rinsing with 3 mL of MACS buffer per column. Three mL of cell suspension is added onto the column (max 1*10^8 of labelled cells/column), and columns are subsequently washed 3 times with 3 mL of Miltenyi buffer.
(§7) The columns are removed from the magnets, and 5 mL of Miltenyi buffer are added to the column to flush out the CD14+ fraction by pushing the plunger into the column. The flushed fractions are collected in a fresh 50 mL Falcon and volume is adjusted to 30 mL using Miltenyi buffer, cells are centrifuged for 10 min at 300×g. The obtained cell pellet is resuspended in 10 mL RPMI w/o FBS, and cell density is determined using a hematologic analyser (Sysmex XS-500i). 100 000 cells are seeded in 80 μL per well of a 96-well plate in RPMI 1640 medium supplemented with 10% FBS, 1% P/S.
(§8) A compound dilution plate is made in 100% DMSO by 3-fold dilution of 10 mM stock solution. An intermediate dilution plate (10× final concentration) is made by diluting the compound dilution plate 50-fold in RPMI medium.
(§9) 10 μL of the 10× final concentration compound is added to the cells and incubated for 1 h at 37° C. before addition of trigger. No trigger conditions/trigger conditions are spiked with equal final DMSO concentrations of 0.2% DMSO. 10 μL of 10×LPS (final conc. 200 ng/mL) solution are added to all wells except for the ‘no trigger wells’ where 10 μL medium is added. Supernatant is collected after 4 h of LPS triggering.
A Lumitrac 600 Greiner 384-well plate is coated with 40 μL of capture antibody (final concentration of 1 μg/mL in 1×PBS) and stored overnight at 4° C. The next day the plate is washed three times with PBST (PBS+0.05% Tween20) and once with PBS followed by the addition of 100 μL of blocking buffer (1% BSA−5% Sucrose) and plates are sealed and incubated for at least 4 h at RT. After washing the plate once with PBST and once with PBS, 40 μL of standard or sample are added (IL-10 standard curve is prepared using a 1/2 serial dilution starting from […]; dilutions are made in dilution buffer (PBS+1% BSA)). Plates are washed twice with PBST, and once with PBS, after which 35 μL of the detection antibody is added (final concentration 0.143 μg/mL diluted in dilution buffer) and plates are incubated for at least 2 h at RT. […]

[2] = tested on: LPS-induced TNFα in monocytes; experiment: Monocytes assay: LPS-triggered TNFα (ELISA); assay type: cell-based, human; settings: Homo sapiens, Monocyte, LPS 200 ng/mL, supernatant after 4 h
Procedure: as §2, §3, §4, §5, §6, §7, §8, §9
A Lumitrac 600 Greiner 384-well plate is coated with 40 μL of capture antibody (BD Pharmingen, Cat #551220) reaching a final concentration of 1 μg/mL in 1×PBS and stored overnight at 4° C.
The plate is then washed once with PBST (PBS+0.05% Tween20) and once with PBS followed by the addition of 100 μL of blocking buffer (1% Bovine Serum Albumin (BSA)−5% Sucrose) and plates are sealed and incubated for at least 4 h at RT. After washing the plate once with PBST and once with PBS, […]. Plates are washed twice with PBST, and once with PBS, after which 35 μL of the detection antibody is added (final concentration 0.25 μg/mL diluted in dilution buffer) and plates are incubated for at least 2 h at RT. […]

SIK1 = target: T2, SIK1 (Homo sapiens, UniProt P57059); experiment: ADP-Glo kinase assay, SIK1; assay type: biochemical; settings: ADP-Glo SIK kinase assay
T2 construct: purchased Carna Biosciences 02-131
T2 sequence (P57059 whole entry): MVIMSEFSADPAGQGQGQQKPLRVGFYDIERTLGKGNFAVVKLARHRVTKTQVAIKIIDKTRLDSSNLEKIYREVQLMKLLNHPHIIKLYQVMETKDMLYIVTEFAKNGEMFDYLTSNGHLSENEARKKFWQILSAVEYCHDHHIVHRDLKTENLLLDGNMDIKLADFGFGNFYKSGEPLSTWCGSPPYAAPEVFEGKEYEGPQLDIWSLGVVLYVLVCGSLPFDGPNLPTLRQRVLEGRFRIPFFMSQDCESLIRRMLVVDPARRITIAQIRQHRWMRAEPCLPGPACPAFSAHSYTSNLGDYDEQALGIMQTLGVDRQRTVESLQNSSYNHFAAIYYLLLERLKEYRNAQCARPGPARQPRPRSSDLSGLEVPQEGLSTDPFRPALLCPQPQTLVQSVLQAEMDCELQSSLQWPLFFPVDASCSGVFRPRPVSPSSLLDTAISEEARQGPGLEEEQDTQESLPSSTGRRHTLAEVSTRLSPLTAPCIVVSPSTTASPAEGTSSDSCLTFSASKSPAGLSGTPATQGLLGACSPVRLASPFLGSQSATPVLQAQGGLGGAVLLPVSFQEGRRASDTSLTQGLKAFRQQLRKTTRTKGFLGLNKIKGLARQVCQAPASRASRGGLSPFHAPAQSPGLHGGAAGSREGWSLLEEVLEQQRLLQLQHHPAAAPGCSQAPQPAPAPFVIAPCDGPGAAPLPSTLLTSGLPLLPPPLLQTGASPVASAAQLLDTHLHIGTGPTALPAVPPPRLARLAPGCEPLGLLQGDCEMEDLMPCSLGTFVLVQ
How it was run: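 ADP-Glo, RT throughout. Enz/substrate + ATP, 120 min; ADP-Glo reagent 40 min (ATP depletion); detection reagent 30 min; luminescence read. Neg ctrl 1% DMSO, pos ctrl 10 μM staurosporine, final concs.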

SIK3 = target: T3, SIK3 (Homo sapiens, UniProt Q9Y2K2); experiment: ADP-Glo kinase assay, SIK3; assay type: biochemical; settings: ADP-Glo SIK kinase assay
T3 construct: purchased SignalChem S12-11G-100
T3 sequence (Q9Y2K2 whole entry): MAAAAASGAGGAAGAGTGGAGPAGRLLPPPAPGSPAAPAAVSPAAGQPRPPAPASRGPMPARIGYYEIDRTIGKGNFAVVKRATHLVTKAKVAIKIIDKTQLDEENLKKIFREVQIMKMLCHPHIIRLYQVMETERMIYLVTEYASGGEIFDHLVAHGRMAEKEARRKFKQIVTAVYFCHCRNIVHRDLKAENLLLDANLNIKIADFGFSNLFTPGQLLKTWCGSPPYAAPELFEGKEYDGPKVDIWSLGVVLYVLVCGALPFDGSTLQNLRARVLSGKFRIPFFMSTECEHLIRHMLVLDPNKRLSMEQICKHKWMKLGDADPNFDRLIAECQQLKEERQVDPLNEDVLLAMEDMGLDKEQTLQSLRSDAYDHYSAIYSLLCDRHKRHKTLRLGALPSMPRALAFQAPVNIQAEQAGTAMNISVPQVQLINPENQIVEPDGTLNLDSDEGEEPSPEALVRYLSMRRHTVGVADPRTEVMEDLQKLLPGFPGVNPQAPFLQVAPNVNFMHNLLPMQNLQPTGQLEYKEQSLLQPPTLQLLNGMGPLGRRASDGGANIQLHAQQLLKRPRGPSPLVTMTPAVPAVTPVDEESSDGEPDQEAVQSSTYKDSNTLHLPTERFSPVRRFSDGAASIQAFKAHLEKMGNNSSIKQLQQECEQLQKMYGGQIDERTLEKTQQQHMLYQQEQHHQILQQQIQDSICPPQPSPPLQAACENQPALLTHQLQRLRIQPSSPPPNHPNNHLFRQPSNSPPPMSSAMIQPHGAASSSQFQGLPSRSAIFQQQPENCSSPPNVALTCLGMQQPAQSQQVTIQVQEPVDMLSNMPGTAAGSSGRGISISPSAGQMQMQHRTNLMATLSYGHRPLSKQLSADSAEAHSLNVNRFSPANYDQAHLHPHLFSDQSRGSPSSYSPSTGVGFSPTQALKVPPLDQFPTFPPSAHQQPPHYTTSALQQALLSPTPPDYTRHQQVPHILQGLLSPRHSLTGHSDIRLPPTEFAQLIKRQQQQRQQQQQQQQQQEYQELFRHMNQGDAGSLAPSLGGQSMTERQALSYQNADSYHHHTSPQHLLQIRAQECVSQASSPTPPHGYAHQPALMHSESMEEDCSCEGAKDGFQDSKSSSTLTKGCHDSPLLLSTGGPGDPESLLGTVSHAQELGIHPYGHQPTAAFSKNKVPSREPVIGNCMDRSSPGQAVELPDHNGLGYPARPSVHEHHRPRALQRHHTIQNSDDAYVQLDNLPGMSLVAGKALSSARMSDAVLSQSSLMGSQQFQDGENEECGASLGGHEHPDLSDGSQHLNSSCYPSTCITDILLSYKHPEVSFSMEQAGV
How it was run: as §1

T1 sequence (Q9H0K1 whole entry): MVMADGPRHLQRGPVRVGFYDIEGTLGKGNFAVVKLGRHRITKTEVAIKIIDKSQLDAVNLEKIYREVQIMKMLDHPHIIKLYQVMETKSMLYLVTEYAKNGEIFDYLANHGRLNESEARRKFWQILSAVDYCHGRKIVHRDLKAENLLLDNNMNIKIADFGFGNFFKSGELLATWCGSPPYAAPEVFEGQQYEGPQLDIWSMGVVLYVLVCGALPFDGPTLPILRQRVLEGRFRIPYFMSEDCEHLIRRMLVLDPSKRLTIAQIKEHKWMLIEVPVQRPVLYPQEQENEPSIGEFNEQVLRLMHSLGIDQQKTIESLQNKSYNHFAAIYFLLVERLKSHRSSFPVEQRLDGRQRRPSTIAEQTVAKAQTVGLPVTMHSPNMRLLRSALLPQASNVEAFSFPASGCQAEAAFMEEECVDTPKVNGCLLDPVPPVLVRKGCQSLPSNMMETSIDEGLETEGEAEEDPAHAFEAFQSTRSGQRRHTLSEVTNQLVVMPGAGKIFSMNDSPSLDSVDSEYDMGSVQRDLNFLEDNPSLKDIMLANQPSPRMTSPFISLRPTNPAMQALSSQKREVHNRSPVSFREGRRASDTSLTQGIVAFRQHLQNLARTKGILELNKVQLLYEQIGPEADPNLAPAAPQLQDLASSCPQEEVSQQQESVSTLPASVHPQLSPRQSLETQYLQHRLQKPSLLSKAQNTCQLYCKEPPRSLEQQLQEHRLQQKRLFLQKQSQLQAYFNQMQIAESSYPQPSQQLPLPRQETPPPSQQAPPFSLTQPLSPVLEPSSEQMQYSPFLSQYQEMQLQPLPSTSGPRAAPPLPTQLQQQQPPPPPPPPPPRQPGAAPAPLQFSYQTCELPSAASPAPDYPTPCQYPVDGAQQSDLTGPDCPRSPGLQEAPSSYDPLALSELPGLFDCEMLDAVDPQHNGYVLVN

Row | SMILES | IC50 (SIK2) [nM] | IL-10 FCmax median [1] | EC50 ([2]; 4 h) [nM] | IC50 (SIK1) [nM] | IC50 (SIK3) [nM] | EC50 [2] [nM]
1 | COc1cc(-c2cnc3cc(OC[C@@H]4CCCN(C(C)C)C4)ccn23)cc(OC(F)F)c1C(=O)NC1CC1 [compound 338, N-cyclopropyl-2-(difluoromethoxy)-4-[7-[[(3R)-1-isopropyl-3-piperidyl]methoxy]imidazo [1,2-a]pyridin-3-yl]-6-methoxy-benzamide] | 0.01 to 10 | ++ (>1.5-4.5) | 0.1 to 100 | 10 to 100 | 0.01 to 10 | –
2 | CCOC(=O)C1(c2ccccc2)CCN(CCCOc2ccn3c(-c4cc(OC)c(C(=O)NC5CC5)c(OC(F)F)c4)cnc3c2)CC1 [compound 378, ethyl 1-[3-[3-[4-(cyclopropylcarbamoyl)-3-(difluoromethoxy)-5-methoxy-phenyl]imidazo[1,2-a]pyridin-7-yl]oxypropyl]-4-phenyl-piperidine-4-carboxylate] | 0.01 to 10 | ++ (>1.5-4.5) | – | 10 to 100 | 0.01 to 10 | 0.1 to 100
3 | COc1cc(-c2cnc3cc(OC4C[C@H]5CC[C@@H](C4)N5)ccn23)cc(OC(F)F)c1C(=O)NC1CC1.Cl (stereo partly drawn) [Cpd 270, 4-[7-[[(1R,5S)-8-azabicyclo[3.2.1]octan-3-yl]oxy]imidazo[1,2-a]pyridin-3-yl]-N-cyclopropyl-2-(difluoromethoxy)-6-methoxy-benzamide hydrochloride salt] | 10 to 100 | ++ (>1.5-4.5) | – | 100 to 500 | 0.01 to 10 | 1000 to 5000
4 | COc1cc(-c2cnc3cc(OCC(O)CN4CC(C(=O)OC(C)(C)C)C4)ccn23)cc(OC(F)F)c1C(=O)NC1CC1 (centres unmarked) [compound 394, tert-butyl 1-[3-[3-[4-(cyclopropylcarbamoyl)-3-(difluoromethoxy)-5-methoxy-phenyl]imidazo[1,2-a]pyridin-7-yl]oxy-2-hydroxy-propyl]azetidine-3-carboxylate] | 0.01 to 10 | ++ (>1.5-4.5) | 0.1 to 100 | 10 to 100 | 0.01 to 10 | –
5 | COc1cc(-c2cnc3cc(OC[C@@H]4CCCN(CCO)C4)ccn23)cc(OC(F)F)c1C(=O)NC1CC1 [Cpd 370, N-cyclopropyl-2-(difluoromethoxy)-4-[7-[[(3R)-1-(2-hydroxyethyl)-3-piperidyl]methoxy]imidazo [1,2-a]pyridin-3-yl]-6-methoxy-benzamide] | 0.01 to 10 | ++ (>1.5-4.5) | 100 to 1000 | 10 to 100 | 0.01 to 10 | –
6 | COc1cc(-c2cnc3cc(OCCCN4CC5CC4CO5)ccn23)cc(OC(F)F)c1C(=O)NC1CC1 (centres unmarked) [compound 284, N-cyclopropyl-2-(difluoromethoxy)-6-methoxy-4-[7-[3-(2-oxa-5-azabicyclo[2.2.1]heptan-5-yl)propoxy]imidazo[1,2-a]pyridin-3-yl]benzamide] | 0.01 to 10 | ++ (>1.5-4.5) | 0.1 to 100 | 0.01 to 10 | 0.01 to 10 | –
7 | CCOC(=O)COc1ccn2c(-c3cc(OC)c(C(=O)NC4CC4)c(OC(F)F)c3)cnc2c1 [Cpd 268, ethyl 2-[3-[4-(cyclopropylcarbamoyl)-3-(difluoromethoxy)-5-methoxy-phenyl]imidazo[1,2-a]pyridin-7-yl]oxyacetate] | 10 to 100 | +++ (>4.5) | 100 to 1000 | 10 to 100 | 0.01 to 10 | –
8 | COc1cc(-c2cnc3cc(OCC4CN(CCC#N)C4)ccn23)cc(OC(F)F)c1C(=O)NC1CC1 [Cpd 323, 4-[7-[[1-(2-cyanoethyl)azetidin-3-yl]methoxy]imidazo[1,2-a]pyridin-3-yl]-N-cyclopropyl-2-(difluoromethoxy)-6-methoxy-benzamide] | 0.01 to 10 | +++ (>4.5) | 0.1 to 100 | 10 to 100 | 0.01 to 10 | –
9 | COc1cc(-c2cnc3cc(OCCCN4C5CCC4COC5)ccn23)cc(OC(F)F)c1C(=O)NC1CC1 [compound 292, N-cyclopropyl-2-(difluoromethoxy)-6-methoxy-4-[7-[3-(3-oxa-8-azabicyclo[3.2.1]octan-8-yl)propoxy]imidazo[1,2-a]pyridin-3-yl]benzamide] | 0.01 to 10 | +++ (>4.5) | – | 10 to 100 | 0.01 to 10 | 0.1 to 100
10 | COc1cc(-c2cnc3cc(OC[C@H]4CCCNC4)ccn23)cc(OC(F)F)c1C(=O)NC1CC1 [Cpd 315, N-cyclopropyl-2-(difluoromethoxy)-6-methoxy-4-[7-[[(3S)-3-piperidyl]methoxy]imidazo[1,2-a]pyridin-3-yl]benzamide] | 0.01 to 10 | ++ (>1.5-4.5) | 100 to 1000 | 10 to 100 | 0.01 to 10 | –
11 | COc1cc(-c2cnc3cc(OCCCN4CCC(O)CC4)ccn23)cc(OC(F)F)c1C(=O)NC1CC1 [compound 277, N-cyclopropyl-2-(difluoromethoxy)-4-[7-[3-(4-hydroxy-1-piperidyl)propoxy]imidazo [1,2-a]pyridin-3-yl]-6-methoxy-benzamide] | 0.01 to 10 | +++ (>4.5) | 0.1 to 100 | 10 to 100 | 0.01 to 10 | –
12 | COc1cc(-c2cnc3cc(OCCCN4CCC(F)(C(N)=O)CC4)ccn23)cc(OC(F)F)c1C(=O)NC1CC1 [Cpd 361, l-[3-[3-[4-(cyclopropylcarbamoyl)-3-(difluoromethoxy)-5-methoxy-phenyl]imidazo[1,2-a]pyridin-7-yl]oxypropyl]-4-fluoro-piperidine-4-carboxamide] | 0.01 to 10 | ++ (>1.5-4.5) | 0.1 to 100 | 10 to 100 | 0.01 to 10 | –
13 | COc1cc(-c2cnc3cc(OCCCN4CCN(C(C)C)CC4)ccn23)cc(OC(F)F)c1C(=O)NC1CC1 [Cpd 279, N-cyclopropyl-2-(difluoromethoxy)-4-[7-[3-(4-isopropylpiperazin-1-yl)propoxy]imidazo[1,2-a]pyridin-3-yl]-6-methoxy-benzamide] | 0.01 to 10 | +++ (>4.5) | 0.1 to 100 | 0.01 to 10 | 0.01 to 10 | –

Reference: US12264156B2, “Compounds and pharmaceutical compositions thereof for the treatment of diseases” (GALAPAGOS NV, priority 2018, dated 2025)
